Laboratory results as given in patent US9833451B2 (priority 2007, dated 2017).
pIC50: −log10 of the molar value. Counter-ions that a name gives are not always drawn. Like-named read-outs stand apart in the source and are kept apart here.

Legend:
clinical = details: for Concentration equivalent to peak plasma concentration (Cmax): human plasma; for Cmax: human, in vivo
Description: The inhaled doses represent the expected systemic delivered dose and were estimated from the fine particle dose delivered ex-actuator.

[1] = target: Serotonin receptor subtype 2C (Homo sapiens, UniProt P28335); details: read-out: Affinity IC50; cited from earlier work
[2] = target: Adrenergic receptor subtype α1b (Homo sapiens, UniProt P35368); details: read-out: Affinity IC50; cited from earlier work
D2 receptor = D2 receptor (Homo sapiens, UniProt P14416); assay: Radioligand receptor binding at concentrations equivalent to Cmax
Description: “(h)” represents cloned human receptor subtypes and “NS” indicates non-specific binding.
(§1) Table 2 presents in vitro concentrations equivalent to Cmax.

5-HT1B receptors = 5-HT1B receptors (Homo sapiens, UniProt P28222); assay: Selective agonism at various concentrations of DHE (FIG. 5); format: biochemical; details: 5 μm control, 77.6 nM (IV Cmax), 6.25 nM (4 inhalations Cmax), 0.25 nM
Description: (§2) Agonists of 5-HT1B subtype receptors are known to be useful in the treatment of migraine and associated symptoms. 5-HT2B receptors are known to play a triggering role in the onset of migraine.

5-HT2B receptors = 5-HT2B receptors (Homo sapiens, UniProt P41595); assay: as above; format: biochemical; details: orally-inhaled DHE concentrations (6.25 nM at Cmax of 4 inhalations)
Description: as §2

5-HT3 receptors [3] = target: T1, 5-HT3 receptors (Homo sapiens, UniProt P46098); assay: Functional assays at 5-HT3 receptors; format: biochemical
Description: 5-HT3 receptors are known to be implicated in nausea. Antagonists at these receptors, such as ondansetron and granisetron prevent chemotherapy-induced nausea and vomiting.

[4] = target: Serotonin receptor subtype 1B (Homo sapiens, UniProt P28222); details: read-out: Affinity IC50; cited from earlier work
[5] = target: Dopaminergic receptor subtype D3 (Homo sapiens, UniProt P35462); details: read-out: Affinity IC50; cited from earlier work
muscarinic (M) receptors = details: cited from earlier work
[6] = target: Adrenergic receptor subtype β3 (Homo sapiens, UniProt P13945); details: read-out: Affinity IC50; cited from earlier work
[7] = target: Serotonin receptor subtype 1F (Homo sapiens, UniProt P30939); details: read-out: Affinity IC50; cited from earlier work
[8] = target: Adrenergic receptor subtype α1a (Homo sapiens, UniProt P35348); details: read-out: Affinity IC50; cited from earlier work
[9] = given subcutaneously at a concentration of only 1.5 mM; cited from earlier work
[10] = target: Serotonin receptor subtype 5; details: read-out: Affinity IC50; cited from earlier work
[11] = target: Dopaminergic receptor subtype D2 (Homo sapiens, UniProt P14416); details: read-out: Affinity IC50; cited from earlier work
[12] = target: Serotonin receptor subtype 3 (Homo sapiens, UniProt P46098); details: read-out: Affinity IC50; cited from earlier work
[13] = tested on: migraine pain in subjects; assay: Relief from migraine pain after inhaled DHE (FIG. 1); format: in vivo, human; details: administration giving the two lower peak plasma profiles of FIG. 2
5-HT1D receptors = 5-HT1D receptors (Homo sapiens, UniProt P28221); assay: Radioligand receptor binding at concentrations equivalent to Cmax; details: following inhalation, compared with IV
Description: (§3) “(h)” represents cloned human receptor subtypes.
as §1

5-HT1B = assay: as above
Description: as §3, §1

5-HT3 receptors [14] = target: T1, 5-HT3 receptors; assay: as above; details: all DHE delivery routes investigated, <20% classed as inactive
Description: as §3, §1

[15] = target: Serotonin receptor subtype 1D (Homo sapiens, UniProt P28221); details: read-out: Affinity IC50; cited from earlier work
[16] = target: Dopaminergic receptor subtype D4 (Homo sapiens, UniProt P21917); details: read-out: Affinity IC50; cited from earlier work
[17] = Side effects in clinical study of IV versus inhaled DHE; format: in vivo, human
Description: The inventors have discovered that these slightly delayed, lower peak pharmacokinetic profiles are associated with minimized side effects.

[18] = target: Serotonin receptor subtype 1E (Homo sapiens, UniProt P28566); details: read-out: Affinity IC50; cited from earlier work
[19] = target: Adrenergic receptor subtype β1 (Homo sapiens, UniProt P08588); details: read-out: Affinity IC50; cited from earlier work
[20] = target: Serotonin receptor subtype 1A (Homo sapiens, UniProt P08908); details: read-out: Affinity IC50; cited from earlier work
[21] = cited from earlier work
[22] = pulmonary delivery; cited from earlier work
[23] = after inhalable administration of DHE

Chain of D2 receptor (P14416 whole entry): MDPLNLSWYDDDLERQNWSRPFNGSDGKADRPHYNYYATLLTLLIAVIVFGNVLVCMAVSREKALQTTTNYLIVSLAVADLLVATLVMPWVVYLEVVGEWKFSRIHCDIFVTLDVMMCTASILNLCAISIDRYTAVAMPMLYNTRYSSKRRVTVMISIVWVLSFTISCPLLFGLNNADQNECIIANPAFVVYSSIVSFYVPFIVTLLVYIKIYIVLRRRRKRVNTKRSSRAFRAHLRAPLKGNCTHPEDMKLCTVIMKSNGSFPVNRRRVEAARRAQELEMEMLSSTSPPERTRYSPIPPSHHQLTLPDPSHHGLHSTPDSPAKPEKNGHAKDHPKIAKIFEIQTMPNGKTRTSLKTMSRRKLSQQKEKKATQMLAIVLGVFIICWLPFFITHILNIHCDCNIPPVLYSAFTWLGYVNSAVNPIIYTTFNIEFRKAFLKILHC
T1 sequence (P46098 24-478): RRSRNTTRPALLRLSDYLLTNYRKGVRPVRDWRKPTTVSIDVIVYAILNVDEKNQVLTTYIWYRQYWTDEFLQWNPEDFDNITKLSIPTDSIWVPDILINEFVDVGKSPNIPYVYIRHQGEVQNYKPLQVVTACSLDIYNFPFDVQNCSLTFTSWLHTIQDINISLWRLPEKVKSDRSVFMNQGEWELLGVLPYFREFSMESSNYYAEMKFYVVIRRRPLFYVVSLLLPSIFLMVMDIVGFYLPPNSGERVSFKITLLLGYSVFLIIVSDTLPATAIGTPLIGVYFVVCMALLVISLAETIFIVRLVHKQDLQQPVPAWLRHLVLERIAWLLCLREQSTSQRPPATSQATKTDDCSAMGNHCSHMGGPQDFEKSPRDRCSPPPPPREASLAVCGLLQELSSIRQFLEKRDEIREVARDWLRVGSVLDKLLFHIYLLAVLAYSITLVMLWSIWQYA
Chain of Adrenergic receptor subtype β1 (P08588 whole entry): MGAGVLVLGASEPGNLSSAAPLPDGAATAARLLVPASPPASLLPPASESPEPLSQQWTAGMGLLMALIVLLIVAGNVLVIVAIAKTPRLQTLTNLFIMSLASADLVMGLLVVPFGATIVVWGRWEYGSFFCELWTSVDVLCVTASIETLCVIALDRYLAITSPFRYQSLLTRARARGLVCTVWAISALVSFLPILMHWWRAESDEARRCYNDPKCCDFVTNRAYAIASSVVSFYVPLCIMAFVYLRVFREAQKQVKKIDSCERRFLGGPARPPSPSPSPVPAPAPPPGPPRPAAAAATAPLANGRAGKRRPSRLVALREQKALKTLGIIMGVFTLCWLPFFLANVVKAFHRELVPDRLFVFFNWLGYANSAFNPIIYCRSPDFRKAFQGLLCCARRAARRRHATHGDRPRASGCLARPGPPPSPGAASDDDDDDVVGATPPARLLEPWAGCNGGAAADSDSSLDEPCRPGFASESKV
Chain of Serotonin receptor subtype 2C (P28335 33-458): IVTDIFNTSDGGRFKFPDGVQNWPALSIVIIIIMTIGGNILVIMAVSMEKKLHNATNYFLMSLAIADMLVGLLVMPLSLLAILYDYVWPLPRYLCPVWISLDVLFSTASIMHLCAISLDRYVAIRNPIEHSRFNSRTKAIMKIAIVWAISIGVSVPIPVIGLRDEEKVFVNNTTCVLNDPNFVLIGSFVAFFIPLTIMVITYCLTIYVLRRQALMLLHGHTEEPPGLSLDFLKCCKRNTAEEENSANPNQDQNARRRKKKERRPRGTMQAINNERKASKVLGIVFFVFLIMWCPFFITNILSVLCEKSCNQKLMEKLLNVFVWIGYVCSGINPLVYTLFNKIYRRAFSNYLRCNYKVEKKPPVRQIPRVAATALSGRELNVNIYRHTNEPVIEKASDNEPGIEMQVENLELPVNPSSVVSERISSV
Chain of Serotonin receptor subtype 1B (P28222 whole entry): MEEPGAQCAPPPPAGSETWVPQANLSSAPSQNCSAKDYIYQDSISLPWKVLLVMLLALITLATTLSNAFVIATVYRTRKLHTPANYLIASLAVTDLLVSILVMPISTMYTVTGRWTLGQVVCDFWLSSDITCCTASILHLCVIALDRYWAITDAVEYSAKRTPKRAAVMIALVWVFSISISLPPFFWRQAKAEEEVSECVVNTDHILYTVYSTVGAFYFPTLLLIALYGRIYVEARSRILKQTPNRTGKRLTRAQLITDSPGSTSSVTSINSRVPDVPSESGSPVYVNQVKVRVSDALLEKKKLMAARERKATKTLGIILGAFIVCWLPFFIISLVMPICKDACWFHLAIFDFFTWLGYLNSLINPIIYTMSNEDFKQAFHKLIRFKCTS
Chain of 5-HT1B receptors (P28222 whole entry): as above
Chain of Adrenergic receptor subtype α1a (P35348 whole entry): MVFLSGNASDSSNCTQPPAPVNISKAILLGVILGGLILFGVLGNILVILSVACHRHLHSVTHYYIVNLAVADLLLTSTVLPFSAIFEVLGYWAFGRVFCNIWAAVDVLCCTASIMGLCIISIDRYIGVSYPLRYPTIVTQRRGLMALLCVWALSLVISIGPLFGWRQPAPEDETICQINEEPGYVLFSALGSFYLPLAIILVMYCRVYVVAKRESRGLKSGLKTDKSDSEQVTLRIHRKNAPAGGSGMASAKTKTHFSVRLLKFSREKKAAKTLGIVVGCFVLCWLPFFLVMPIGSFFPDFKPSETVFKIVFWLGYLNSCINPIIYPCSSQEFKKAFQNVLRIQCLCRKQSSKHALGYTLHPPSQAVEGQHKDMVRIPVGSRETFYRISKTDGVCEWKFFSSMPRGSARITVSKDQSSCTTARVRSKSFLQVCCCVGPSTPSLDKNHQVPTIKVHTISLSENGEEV
Chain of Serotonin receptor subtype 1D (P28221 whole entry): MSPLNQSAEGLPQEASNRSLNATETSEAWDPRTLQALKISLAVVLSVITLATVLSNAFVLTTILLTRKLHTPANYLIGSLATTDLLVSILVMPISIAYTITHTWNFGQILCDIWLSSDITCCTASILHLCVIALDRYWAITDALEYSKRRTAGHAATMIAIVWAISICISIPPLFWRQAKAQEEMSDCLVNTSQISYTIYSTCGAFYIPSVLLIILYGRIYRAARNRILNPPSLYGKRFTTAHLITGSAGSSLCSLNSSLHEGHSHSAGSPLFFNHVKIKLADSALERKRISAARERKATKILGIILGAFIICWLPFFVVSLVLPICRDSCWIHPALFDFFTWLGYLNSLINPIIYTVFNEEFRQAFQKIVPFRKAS
Chain of 5-HT1D receptors (P28221 whole entry): as above
Chain of Adrenergic receptor subtype β3 (P13945 whole entry): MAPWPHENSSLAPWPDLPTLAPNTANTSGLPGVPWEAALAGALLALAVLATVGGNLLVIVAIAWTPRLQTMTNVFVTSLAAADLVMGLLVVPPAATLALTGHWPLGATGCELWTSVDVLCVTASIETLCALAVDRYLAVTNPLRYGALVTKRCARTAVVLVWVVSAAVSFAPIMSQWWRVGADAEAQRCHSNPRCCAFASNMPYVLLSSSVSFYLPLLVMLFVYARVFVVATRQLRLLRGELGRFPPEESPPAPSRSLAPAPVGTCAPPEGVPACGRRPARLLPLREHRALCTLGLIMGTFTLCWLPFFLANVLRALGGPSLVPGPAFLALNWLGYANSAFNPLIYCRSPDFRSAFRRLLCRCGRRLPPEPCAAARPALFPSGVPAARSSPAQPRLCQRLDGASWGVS
Chain of Dopaminergic receptor subtype D2 (P14416 whole entry): as the sequence (P14416 whole entry) above
Chain of Serotonin receptor subtype 3 (P46098 24-478): as the sequence (P46098 24-478) above
Chain of Adrenergic receptor subtype α1b (P35368 whole entry): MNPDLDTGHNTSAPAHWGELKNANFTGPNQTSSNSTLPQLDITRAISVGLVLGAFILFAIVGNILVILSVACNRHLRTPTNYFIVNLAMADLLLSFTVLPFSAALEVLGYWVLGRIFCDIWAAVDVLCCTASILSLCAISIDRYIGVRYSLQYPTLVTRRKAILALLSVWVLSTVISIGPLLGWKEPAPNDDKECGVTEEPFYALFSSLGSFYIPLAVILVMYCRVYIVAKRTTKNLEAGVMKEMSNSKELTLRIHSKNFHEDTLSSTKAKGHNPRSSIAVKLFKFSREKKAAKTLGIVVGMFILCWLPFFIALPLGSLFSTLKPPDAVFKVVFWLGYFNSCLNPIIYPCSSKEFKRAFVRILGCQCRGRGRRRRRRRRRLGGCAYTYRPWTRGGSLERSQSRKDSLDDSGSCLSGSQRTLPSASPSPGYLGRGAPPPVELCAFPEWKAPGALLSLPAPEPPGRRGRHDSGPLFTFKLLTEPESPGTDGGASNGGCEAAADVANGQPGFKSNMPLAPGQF
Chain of Dopaminergic receptor subtype D3 (P35462 whole entry): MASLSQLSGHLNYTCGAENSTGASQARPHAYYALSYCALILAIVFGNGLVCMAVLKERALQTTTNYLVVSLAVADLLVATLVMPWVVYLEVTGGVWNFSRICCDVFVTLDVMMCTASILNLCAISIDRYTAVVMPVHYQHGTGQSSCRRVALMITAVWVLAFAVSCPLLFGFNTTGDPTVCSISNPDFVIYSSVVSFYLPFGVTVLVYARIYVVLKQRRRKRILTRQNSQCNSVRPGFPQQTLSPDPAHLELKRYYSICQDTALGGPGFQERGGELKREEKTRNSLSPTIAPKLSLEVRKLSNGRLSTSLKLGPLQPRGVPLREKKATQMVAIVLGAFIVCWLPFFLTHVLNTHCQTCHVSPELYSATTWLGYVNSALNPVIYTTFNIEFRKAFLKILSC
Chain of Dopaminergic receptor subtype D4 (P21917 whole entry): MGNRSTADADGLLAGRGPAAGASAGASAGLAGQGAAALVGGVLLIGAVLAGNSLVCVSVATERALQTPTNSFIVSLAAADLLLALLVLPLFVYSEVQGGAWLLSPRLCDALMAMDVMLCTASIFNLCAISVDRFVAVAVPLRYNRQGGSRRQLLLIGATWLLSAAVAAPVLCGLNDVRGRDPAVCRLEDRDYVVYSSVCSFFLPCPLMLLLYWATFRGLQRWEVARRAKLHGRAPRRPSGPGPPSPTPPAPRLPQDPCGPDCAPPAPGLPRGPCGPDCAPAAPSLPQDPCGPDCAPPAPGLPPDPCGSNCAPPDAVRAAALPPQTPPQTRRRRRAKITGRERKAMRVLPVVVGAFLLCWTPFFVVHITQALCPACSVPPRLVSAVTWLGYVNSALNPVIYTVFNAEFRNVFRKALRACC

CN1C[C@H](C(=O)N[C@]2(C)O[C@@]3(O)[C@@H]4CCC(O)N4C(=O)[C@H](Cc4ccccc4)N3C2=O)C[C@@H]2c3cccc4[nH]cc(c34)C[C@H]21 (stereo partly drawn) [8′-OH Dihydroergotamine]
Concentration equivalent to peak plasma concentration (Cmax) (clinical; after DHE 0.44 mg inhaled): 0.058 ng/mL | Concentration equivalent to peak plasma concentration (Cmax) (clinical; after DHE 0.88 mg inhaled): 0.149 ng/mL | Concentration equivalent to peak plasma concentration (Cmax) (clinical; after DHE 1 mg IV (infusion over 3 minutes)): 0.378 ng/mL | Tmax of primary metabolite in circulating plasma (clinical; [23]): less than 90 minutes | peak plasma concentration of metabolite at Cmax (clinical; [23]): less than 1,000 pg/ml

CN1C[C@H](C(=O)N[C@]2(C)O[C@@]3(O)[C@@H]4CCCN4C(=O)[C@H](Cc4ccccc4)N3C2=O)C[C@@H]2c3cccc4[nH]cc(c34)C[C@H]21 [DHE, dihydroergotamine mesylate]
pIC50 [1]: 8.89 | pIC50 [2]: 8.08 | receptor binding in D2 assays (D2 receptor; IV dose Cmax levels): 50% | binding in D2 assays (D2 receptor; after inhaled dosing (Cmax levels)): no binding affinity | agonism at 5-HT1B receptors (5-HT1B receptors): maintained across all concentrations | agonism at 5-HT2B receptors (5-HT2B receptors): agonism is absent | agonist or antagonist activity at 5-HT3 receptors (5-HT3 receptors [3]): lack of agonist or antagonist activity | pIC50 [4]: 9.15 | pIC50 [5]: 8.19 | binding activity at muscarinic (M) receptors (muscarinic (M) receptors): minimal binding activity | pIC50 [6]: 6.57 | pIC50 [7]: 6.74 | pIC50 [8]: 8.18 | treated patients with nausea [9]: ~16% | pIC50 [10]: 7.22 | pIC50 [11]: 8.92 | pIC50 [12]: 5.43 | time to rapid pain relief [13]: ≤ 10 min | apparent binding at 5-HT1D receptors (5-HT1D receptors): lower than IV | binding at 5-HT1B (5-HT1B; Cmax following 0.88 mg inhaled dosing): 100% | binding at 5-HT1B (5-HT1B; Cmax following 1 mg intravenous dosing): 100% | binding at 5-HT3 receptors (5-HT3 receptors [14]): < 20% | pIC50 [15]: 9.30 | pIC50 [16]: 8.06 | time to rapid plasma levels (clinical; all three methods of administration (FIG. 2)): ≤ 20 min | difference in AUC (clinical; between 1 mg IV and 0.88 mg inhaled): 1.2 fold | Cmax (clinical; inhaled or intranasal, 0.44 mg): 1.34 ng/mL | Cmax (clinical; inhaled or intranasal, 0.88 mg): 4.29 ng/mL | Cmax (clinical; iv, 1 mg): 53.2 ng/mL | side effects observed ([17]; 0.44 mg dose inhaled): no side effects were observed | Dizziness, subjects (%) ([17]; 0.88 mg DHE Inhaled, n = 12): 1 (8) (%) | Feeling hot, subjects (%) ([17]; 0.88 mg DHE Inhaled, n = 12): 0 (%) | Nausea, subjects (%) ([17]; 0.88 mg DHE Inhaled, n = 12): 1 (8) (%) | Paresthesia, subjects (%) ([17]; 0.88 mg DHE Inhaled, n = 12): 0 (%) | Vomiting, subjects (%) ([17]; 0.88 mg DHE Inhaled, n = 12): 0 (%) | side effects observed ([17]; 0.88 mg dose inhaled): only minor side effects | Dizziness, number considered by investigator related to study drug (r) ([17]; 1 mg DHE IV, n = 16): 7 | Dizziness, subjects (%) ([17]; 1 mg DHE IV, n = 16): 7 (44) (%) | Feeling hot, number considered by investigator related to study drug (r) ([17]; 1 mg DHE IV, n = 16): 3 | Feeling hot, subjects (%) ([17]; 1 mg DHE IV, n = 16): 3 (19) (%) | Nausea, number considered by investigator related to study drug (r) ([17]; 1 mg DHE IV, n = 16): 10 | Nausea, subjects (%) ([17]; 1 mg DHE IV, n = 16): 10 (63) (%) | Paresthesia, number considered by investigator related to study drug (r) ([17]; 1 mg DHE IV, n = 16): 5 | Paresthesia, subjects (%) ([17]; 1 mg DHE IV, n = 16): 5 (31) (%) | Vomiting, number considered by investigator related to study drug (r) ([17]; 1 mg DHE IV, n = 16): 2 | Vomiting, subjects (%) ([17]; 1 mg DHE IV, n = 16): 2 (13) (%) | side effects observed ([17]; 1.0 mg IV DHE): significant side effects including nausea and emesis | incidence of nausea ([17]; inhaled): 8% | incidence of nausea ([17]; intravenous administration): 63% | pIC50 [18]: 5.96 | pIC50 [19]: 5.51 | pIC50 [20]: 9.40

CN1C[C@H](C(=O)N[C@]2(C)O[C@@]3(O)[C@@H]4CCCN4C(=O)[C@H](Cc4ccccc4)N3C2=O)C=C2c3cccc4[nH]cc(c34)C[C@H]21 [Ergotamine, ergotamine tartrate]
onset of therapeutic efficacy ([21]; intranasal): 45 min | onset of therapeutic efficacy ([21]; oral or sublingual delivery): 120 min | bioavailability [22]: up to 92%
